Experimental data as given in patent US20260132129A1 (Genesis Therapeutics, Inc., priority 2022, published 2026).
pIC50: −log10 of the molar value.

Biological target: T1, PI3Kα H1047R (T47D cells) (Homo sapiens, UniProt P42336, H1047R)
T1 construct: endogenous in cells; host or cells: T47D cells
Assay: PI3Kα cellular assay: pAKT HTRF in T47D cells after EGF stimulation
Assay type: cell-based
Conditions: for pIC50: T47D cells (PI3Kα H1047R), pAKT S473 HTRF
Procedure, shortened: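 T47D cells (PIK3CA H1047R) serum-starved 16 h, then treated 1 h at 37 °C with compound (10,000 nM top, 3-fold steps to 0.5 nM). After 10 min stimulation with 20 ng/mL EGF, cells were lysed and pAKT measured by HTRF.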

[1] = 1 hr compound, 20 ng/ml EGF 10 min
[2] = selectivity T47D (H1047R) over SKBR3 (WT), pAKT HTRF
[3] = selectivity of T47D (H1047R) over SKBR3 (WT) pAKT IC50

T1 sequence (P42336 whole entry H1047R): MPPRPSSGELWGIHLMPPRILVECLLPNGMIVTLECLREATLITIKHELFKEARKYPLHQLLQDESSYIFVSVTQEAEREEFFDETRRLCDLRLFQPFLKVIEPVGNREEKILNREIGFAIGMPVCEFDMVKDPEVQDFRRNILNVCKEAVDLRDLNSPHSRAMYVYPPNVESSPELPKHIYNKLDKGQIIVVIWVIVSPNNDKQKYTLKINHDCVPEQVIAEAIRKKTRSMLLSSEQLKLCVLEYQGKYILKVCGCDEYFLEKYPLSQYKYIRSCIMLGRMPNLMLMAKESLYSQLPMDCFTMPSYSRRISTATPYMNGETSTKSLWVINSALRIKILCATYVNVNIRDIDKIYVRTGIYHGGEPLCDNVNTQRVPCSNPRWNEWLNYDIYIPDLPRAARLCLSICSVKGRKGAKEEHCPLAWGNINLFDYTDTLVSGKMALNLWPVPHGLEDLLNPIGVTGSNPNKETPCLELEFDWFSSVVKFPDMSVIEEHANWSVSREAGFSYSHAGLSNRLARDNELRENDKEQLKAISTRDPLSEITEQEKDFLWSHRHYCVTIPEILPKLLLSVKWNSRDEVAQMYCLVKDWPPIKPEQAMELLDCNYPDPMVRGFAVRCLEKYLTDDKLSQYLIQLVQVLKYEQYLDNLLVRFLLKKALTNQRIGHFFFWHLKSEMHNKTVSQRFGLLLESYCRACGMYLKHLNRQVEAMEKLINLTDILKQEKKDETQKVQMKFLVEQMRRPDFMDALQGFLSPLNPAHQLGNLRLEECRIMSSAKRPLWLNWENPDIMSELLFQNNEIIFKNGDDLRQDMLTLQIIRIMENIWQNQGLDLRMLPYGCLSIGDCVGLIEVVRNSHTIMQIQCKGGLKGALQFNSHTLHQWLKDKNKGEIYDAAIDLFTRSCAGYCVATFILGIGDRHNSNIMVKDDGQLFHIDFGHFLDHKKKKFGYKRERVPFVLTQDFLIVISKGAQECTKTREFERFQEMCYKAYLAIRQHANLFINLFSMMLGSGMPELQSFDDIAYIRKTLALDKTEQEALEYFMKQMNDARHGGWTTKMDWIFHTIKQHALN
T1 sequence (P27986 whole entry partner): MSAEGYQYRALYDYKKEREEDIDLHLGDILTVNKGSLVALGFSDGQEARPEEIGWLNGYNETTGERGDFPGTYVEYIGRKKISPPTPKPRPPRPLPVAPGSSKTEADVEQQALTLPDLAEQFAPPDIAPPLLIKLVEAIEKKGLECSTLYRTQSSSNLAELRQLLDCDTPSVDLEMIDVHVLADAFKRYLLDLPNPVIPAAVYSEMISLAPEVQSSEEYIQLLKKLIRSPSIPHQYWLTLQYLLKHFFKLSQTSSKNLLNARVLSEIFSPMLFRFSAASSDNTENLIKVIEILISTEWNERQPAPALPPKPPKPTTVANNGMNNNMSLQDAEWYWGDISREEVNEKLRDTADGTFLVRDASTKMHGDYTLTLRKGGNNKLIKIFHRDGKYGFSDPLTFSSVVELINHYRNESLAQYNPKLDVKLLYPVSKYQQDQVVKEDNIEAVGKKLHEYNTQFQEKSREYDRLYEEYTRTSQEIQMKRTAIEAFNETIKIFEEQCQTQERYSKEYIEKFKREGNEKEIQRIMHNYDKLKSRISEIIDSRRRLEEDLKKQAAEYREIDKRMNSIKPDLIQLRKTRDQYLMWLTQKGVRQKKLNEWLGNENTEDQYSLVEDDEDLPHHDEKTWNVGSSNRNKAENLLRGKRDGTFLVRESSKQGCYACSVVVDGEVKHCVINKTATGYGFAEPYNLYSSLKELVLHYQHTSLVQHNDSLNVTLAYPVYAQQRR

Structure (SMILES) | pIC50 [1] | T47D pAKT S473 HTRF IC50 (H1047R): T47D (H1047R) selectivity over SKBR3 (WT) [2] | pIC50 (EGF stimulation) | T47D pAKT S473 HTRF IC50 (H1047R): T47D (H1047R) selectivity over SKBR3 (WT) [3]
Cc1cc([C@H](C)Nc2ccccc2C(=O)O)c2nc(-c3ccc4c(c3)c(N)nn4C)cc(=O)n2c1 (single isomer, unassigned) [Compound 536] | > 7.00 | A (A denotes >20-fold) | – | –
Cc1cc([C@@H](C)Nc2ccccc2C(=O)O)c2nc(-n3cnc4ccc(O)cc43)cc(=O)n2c1 [Compound 826] | – | – | 5.70 to 6.30 | B (B denotes 20-fold≥value>5-fold)
Cc1cc([C@@H](C)Nc2cccc3[nH]c(=O)oc23)c2nc(N3CCOCC3)cc(=O)n2c1 [Compound 565] | < 5.70 | C (C denotes ≤5-fold) | – | –
Cc1cc([C@H](C)Nc2ccccc2C(=O)O)c2nc(N3CC4CC(F)(F)CC4C3)c(C)c(=O)n2c1 (stereo partly drawn) [Compound 850] | – | – | < 5.70 | C (C denotes ≤5-fold)
Cc1cc([C@H](C)Nc2ccccc2C(=O)O)c2nc(-c3ccc(-c4ccc5c(c4)CCO5)c(F)c3)c(C)c(=O)n2c1 [Compound 1269] | – | C (C denotes ≤5-fold) | < 5.70 | –
CC(=O)N1CCC(c2cc(=O)n3cc(C)cc([C@H](C)Nc4ccccc4C(=O)O)c3n2)CC1 [Compound 523] | 5.70 to 6.30 | B (B denotes 20-fold≥value>5-fold) | – | –
CC[C@H](Nc1ccccc1C(=O)O)c1cc(C)cn2c(=O)cc(N3CCOCC3)nc12 [Compound 294] | 5.70 to 6.30 | C (C denotes ≤5-fold) | – | –
Cc1cc([C@@H](C)Nc2ccccc2C(=O)O)c2nc(-c3ccc(-c4ccc5c(c4)CCO5)c(F)c3)c(C)c(=O)n2c1 [Compound 1268] | – | A (A denotes >20-fold) | > 7.00 | –
Cc1cc(C(C)Nc2ccccc2C(=O)O)c2nc(-c3ccc(F)cc3)c(C)c(=O)n2c1 (stereo not drawn) [Compound 691, 2-((1-(2-(4-fluorophenyl)-3,7-dimethyl-4-oxo-4H-pyrido[1,2-a]pyrimidin-9-yl)ethyl)amino)benzoic acid] | – | – | > 7.00 | A (A denotes >20-fold)
Cc1cc(C(C)Nc2ccccc2S(C)(=O)=O)c2nc(N3CCOCC3)cc(=O)n2c1 (stereo not drawn) [Compound 134] | – | B (B denotes 20-fold≥value>5-fold) | – | –
Cc1cc([C@@H](C)Nc2ccccc2C(=O)O)c2nc(-c3ccnc(C4CC4)c3)c(C)c(=O)n2c1 (single isomer, unassigned) [Compound 953] | – | – | > 7.00 | A (A denotes >20-fold)
Cc1cc([C@@H](C)Nc2ccccc2C(=O)O)c2nc(C3CCC(C)(C)CC3)cc(=O)n2c1 [Compound 623, (R)-2-((1-(2-(4,4-dimethylcyclohexyl)-7-methyl-4-oxo-4H-pyrido[1,2-a]pyrimidin-9-yl)ethyl)amino)benzoic acid] | > 7.00 | A (A denotes >20-fold) | – | –
Cc1cccc(-c2nc3c([C@H](C)Nc4ccccc4S(C)(=O)=O)cc(C)cn3c(=O)c2C)c1 [Compound 1320] | – | B (B denotes 20-fold≥value>5-fold) | – | –
Cc1cc(C(C)Nc2ccccc2C(=O)O)c2nc(-c3ccc4c(c3)C(C)NN4C)cc(=O)n2c1 (stereo not drawn) [Compound 757] | – | – | < 5.70 | C (C denotes ≤5-fold)
Cc1cc(CCNc2ccc(F)cc2C(=O)O)c2nc(N3CCOCC3)cc(=O)n2c1 [Compound 806] | – | – | < 5.70 | C (C denotes ≤5-fold)
Cc1cc([C@H](C)Nc2ccccc2C(=O)O)c2nc(-c3ccc4c(c3)c(C)cn4C)c(C)c(=O)n2c1 [Compound 903] | – | – | 5.70 to 6.30 | B (B denotes 20-fold≥value>5-fold)
CCc1cc(C(=O)NOC)ccc1-c1cc(=O)n2cc(C)cc([C@H](C)Nc3ccccc3C(=O)O)c2n1 [Compound 504] | < 5.70 | C (C denotes ≤5-fold) | – | –
Cc1cc(C(C)Nc2ccccc2-c2ccnnc2)c2nc(-c3ccc4c(C)nn(C5CC5)c4c3)c(C)c(=O)n2c1 (stereo not drawn) [Compound 1127] | – | C (C denotes ≤5-fold) | < 5.70 | –
Cc1cc([C@@H](C)Nc2cccc3onc(O)c23)c2nc(-c3cccc(F)c3)c(C)c(=O)n2c1 (single isomer, unassigned) [Compound 1374] | – | A (A denotes >20-fold) | 6.30 to 7.00 | –
CC(Nc1ccccc1C(=O)O)c1cc(C(F)(F)F)cn2c(=O)cc(N3C[C@@H](C)O[C@@H](C)C3)nc12 (stereo partly drawn) [Compound 898] | – | – | – | A (A denotes >20-fold)
Cc1cc([C@H](C)N(C)c2ccccc2C(=O)O)c2nc(N3CCOCC3)cc(=O)n2c1 [Compound 310] | < 5.70 | C (C denotes ≤5-fold) | – | –
Cc1cc([C@@H](C)Nc2ccccc2C(=O)O)c2nc(-c3ccc(Cl)cc3F)c(C)c(=O)n2c1 [Compound 1069] | – | A (A denotes >20-fold) | > 7.00 | –

Structure (SMILES) | pIC50 [1] | T47D pAKT S473 HTRF IC50 (H1047R): T47D (H1047R) selectivity over SKBR3 (WT) [2] | pIC50 (EGF stimulation) | T47D pAKT S473 HTRF IC50 (H1047R): T47D (H1047R) selectivity over SKBR3 (WT) [3]
Cc1cc([C@@H](C)Nc2ccccc2C(=O)O)c2nc([C@@H]3CCOC3)cc(=O)n2c1 [Compound 538] | < 5.70 | C (C denotes ≤5-fold) | – | –
Cc1cc([C@H](C)Nc2ccccc2C(=O)O)c2nc(-c3ccc4c(C)nn(C)c4c3)c(C)c(=O)n2c1 [Compound 928] | – | – | < 5.70 | C (C denotes ≤5-fold)
Cc1cc(C(C)Nc2ccccc2C(=O)O)c2nc(-c3ccc4c(c3)c(C(F)(F)F)nn4C)cc(=O)n2c1 (stereo not drawn) [Compound 724] | – | – | 6.30 to 7.00 | A (A denotes >20-fold)
Cc1cc(C(C)Nc2ccccc2-c2ccnnc2)c2nc(-c3cccnc3)c(C)c(=O)n2c1 (stereo not drawn) [Compound 1143] | – | A (A denotes >20-fold) | 6.30 to 7.00 | –
COc1cc(-c2nc3c([C@H](C)Nc4ccccc4C(=O)O)cc(C)cn3c(=O)c2C)cn2ncc(C#N)c12 [Compound 1292] | – | C (C denotes ≤5-fold) | < 5.70 | –
CONC(=O)c1ccc(-c2cc(=O)n3cc(C)cc([C@H](C)Nc4ccccc4C(=O)O)c3n2)cc1 [Compound 486] | 6.30 to 7.00 | A (A denotes >20-fold) | – | –
COCCNc1cc(=O)n2cc(C)cc(C(C)Nc3ccccc3C(=O)O)c2n1 (stereo not drawn) [Compound 313] | < 5.70 | C (C denotes ≤5-fold) | – | –
Cc1cc([C@H](C)Nc2ccccc2-c2ccnnc2)c2nc(-c3ccc4c(C)cn(C)c4c3)c(C)c(=O)n2c1 [Compound 1134] | – | B (B denotes 20-fold≥value>5-fold) | 5.70 to 6.30 | –
Cc1cc([C@H](C)Nc2ccccc2C(=O)O)c2nc(-c3ccc4c(c3)NC(=O)C4)cc(=O)n2c1 [Compound 576] | < 5.70 | C (C denotes ≤5-fold) | – | –
Cc1cc([C@H](C)Nc2ccccc2CC(=O)O)c2nc(N3CCOCC3)cc(=O)n2c1 [Compound 158] | < 5.70 | C (C denotes ≤5-fold) | – | –
Cc1cc([C@H](C)Nc2ccnnc2C(=O)O)c2nc(N3CCOCC3)cc(=O)n2c1 [Compound 378] | < 5.70 | C (C denotes ≤5-fold) | – | –
Cc1cc([C@@H](C)Nc2ccccc2C(=O)O)c2nc(C3Cc4ccccc4[C@@H]3C)cc(=O)n2c1 (single isomer, unassigned) [Compound 652] | – | – | – | A (A denotes >20-fold)
Cc1cc([C@@H](C)Nc2ccccc2-c2ccnnc2)c2nc(-c3cnc(C)c(Cl)c3)c(C)c(=O)n2c1 [Compound 1141] | – | C (C denotes ≤5-fold) | – | –
CC1=NC(C)c2cc(-c3cc(=O)n4cc(C)cc([C@@H](C)Nc5ccccc5C(=O)O)c4n3)ccc21 (stereo partly drawn) [Compound 752] | – | – | – | C (C denotes ≤5-fold)
Cc1cc(C(C)Nc2ccccc2S(N)(=O)=O)c2nc(-c3cnc4c(c3)c(C)nn4C3CC3)c(C)c(=O)n2c1 (stereo not drawn) [Compound 990] | – | – | 6.30 to 7.00 | A (A denotes >20-fold)
Cc1cc([C@@H](C)Nc2ccccc2C(=O)O)c2cc([C@@H]3CCCOC3)c(C#N)c(=O)n2c1 [Compound 1361] | – | A (A denotes >20-fold) | – | –
Cc1cc([C@H](C)Nc2ccccc2C(=O)O)c2nc(C3CCOCC3)c(C)c(=O)n2c1 [Compound 1056] | – | – | < 5.70 | C (C denotes ≤5-fold)
CNC(=O)C#Cc1ccc(-c2nc3c([C@H](C)Nc4ccccc4C(=O)O)cc(C)cn3c(=O)c2C)cc1F [Compound 1265] | – | C (C denotes ≤5-fold) | < 5.70 | –
Cc1cc([C@H](C)Nc2ccccc2S(N)(=O)=O)c2nc(-c3ccc(F)cc3)cc(=O)n2c1 [Compound 587] | < 5.70 | C (C denotes ≤5-fold) | – | –
Cc1cc([C@H](C)Nc2ccccc2C(=O)O)c2nc(C3Cc4ccccc4C3)c(C3CC3)c(=O)n2c1 (single isomer, unassigned) [Compound 983] | – | – | 5.70 to 6.30 | B (B denotes 20-fold≥value>5-fold)
Cc1cc([C@@H](C)Nc2ccccc2C(=O)O)c2nc([C@H]3CCCC(CC(F)F)C3)c(C)c(=O)n2c1 (stereo partly drawn) [Compound 1329] | – | A (A denotes >20-fold) | – | –
